Experimental data taken from patent publication US10399940B2, “Substituted pyrrolidines and methods of use” (AbbVie S.à.r.l., priority 2016, dated 2019).
Like-named read-outs stand apart in the source and are kept apart here.

Target: T1, F508delCFTR (Homo sapiens, UniProt P13569, DEL508-508)
T1 construct: expressed in transfected cells; host or cells: CFBE41o- (human lung derived epithelial cell line), doxycycline-inducible expression
Assay: Cell Surface Expression-Horse Radish Peroxidase (CSE-HRP) assay
Format: cell-based
Conditions: CFBE41o-F508delCFTR-HRP cells; for Maximum % activity (with co-corrector): with co-corrector (2 μM); for Maximum % activity (with co-corrector) / Maximum % activity (without co-corrector): normalized to on-plate positive control, highest concentration 20 μM
Method in brief: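 CFBE41o- cells expressed F508delCFTR with HRP in the fourth exofacial loop, induced by 0.5 μg/mL doxycycline for 72 h at 37 °C. Compounds alone or with 2 μM co-corrector ran 18–24 h at 33 °C, 8-point 3-fold from 20 μM. Washed-cell luminol luminescence was normalized to DMSO and positive control, fitted sigmoidally for EC50 (three plates).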

[1] = test compound without co-corrector, 18-24 hours at 33° C., read-out: EC50 (without co-corrector)
[2] = with co-corrector (2 μM of 3-[(2R,4R)-4-({[1-(2,2-difluoro-1,3-benzodioxol-5-yl)cyclopropyl]carbonyl}amino)-7-methoxy-3,4-dihydro-2H-chromen-2-yl]benzoic acid), read-out: EC50 (with co-corrector)

T1 sequence (P13569 with tags, fused parts or gaps DEL508-508): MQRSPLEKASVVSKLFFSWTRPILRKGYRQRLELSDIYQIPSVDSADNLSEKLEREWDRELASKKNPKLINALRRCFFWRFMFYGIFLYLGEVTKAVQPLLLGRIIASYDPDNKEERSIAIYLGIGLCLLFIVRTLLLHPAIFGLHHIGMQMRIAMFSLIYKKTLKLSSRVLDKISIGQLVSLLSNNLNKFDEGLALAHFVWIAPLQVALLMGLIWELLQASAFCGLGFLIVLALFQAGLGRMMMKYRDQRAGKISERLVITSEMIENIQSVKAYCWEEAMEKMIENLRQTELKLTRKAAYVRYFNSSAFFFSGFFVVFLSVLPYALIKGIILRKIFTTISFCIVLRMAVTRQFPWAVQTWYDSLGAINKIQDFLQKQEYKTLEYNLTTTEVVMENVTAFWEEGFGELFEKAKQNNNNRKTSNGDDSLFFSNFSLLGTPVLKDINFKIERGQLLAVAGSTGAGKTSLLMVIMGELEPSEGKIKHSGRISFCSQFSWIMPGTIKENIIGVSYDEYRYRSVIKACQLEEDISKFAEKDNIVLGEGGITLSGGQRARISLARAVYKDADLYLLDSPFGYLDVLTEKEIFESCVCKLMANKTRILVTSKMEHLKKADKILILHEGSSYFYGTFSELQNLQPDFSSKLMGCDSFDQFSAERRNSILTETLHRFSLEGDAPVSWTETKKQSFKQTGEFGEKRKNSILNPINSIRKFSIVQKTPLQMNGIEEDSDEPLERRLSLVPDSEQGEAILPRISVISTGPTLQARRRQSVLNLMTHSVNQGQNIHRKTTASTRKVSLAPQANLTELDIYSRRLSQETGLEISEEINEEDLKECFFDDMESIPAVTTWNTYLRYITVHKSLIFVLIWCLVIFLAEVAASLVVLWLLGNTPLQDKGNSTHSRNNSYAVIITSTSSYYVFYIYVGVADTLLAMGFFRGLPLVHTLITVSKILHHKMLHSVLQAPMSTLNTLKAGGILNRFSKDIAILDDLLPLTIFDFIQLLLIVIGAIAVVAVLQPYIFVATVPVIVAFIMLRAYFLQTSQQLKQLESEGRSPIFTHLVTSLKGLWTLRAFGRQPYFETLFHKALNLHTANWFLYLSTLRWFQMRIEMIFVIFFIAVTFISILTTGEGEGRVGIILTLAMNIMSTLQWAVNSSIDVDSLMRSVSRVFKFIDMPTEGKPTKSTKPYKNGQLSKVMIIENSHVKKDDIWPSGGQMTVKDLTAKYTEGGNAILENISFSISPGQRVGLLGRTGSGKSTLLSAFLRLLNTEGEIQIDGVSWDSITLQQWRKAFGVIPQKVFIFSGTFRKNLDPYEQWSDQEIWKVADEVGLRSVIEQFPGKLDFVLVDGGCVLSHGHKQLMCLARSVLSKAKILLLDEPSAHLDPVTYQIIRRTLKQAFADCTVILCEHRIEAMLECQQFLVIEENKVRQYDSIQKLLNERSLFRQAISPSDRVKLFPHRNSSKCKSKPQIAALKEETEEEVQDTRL

Row | SMILES | EC50 [1] [nM] | EC50 [2] [nM] | Maximum % activity (with co-corrector) | Maximum % activity (without co-corrector)
1 | COc1ccc(C(F)(F)F)cc1CO[C@@H]1[C@H](C(C)(C)C)[C@@H](C(=O)O)N(C(=O)[C@@H]2CCCO2)[C@H]1c1cccnc1C(F)(F)F [Example 114, (2S,3R,4R,5S)-3-tert-butyl-4-{[2-methoxy-5-(trifluoromethyl)phenyl]methoxy}-1-[(2S)-oxolane-2-carbonyl]-5-[2-(trifluoromethyl)pyridin-3-yl]pyrrolidine-2-carboxylic acid] | > 10000 | > 10000 | + (<150) | + (<100)
2 | COc1ncc(C(F)(F)F)cc1CO[C@H]1[C@H](C(C)(C)C)[C@@H](C(=O)O)N(C(=O)[C@@H]2CCCO2)[C@H]1c1ccccc1Cl [Example 115, (2S,3R,4S,5S)-3-tert-butyl-5-(2-chlorophenyl)-4-{[2-methoxy-5-(trifluoromethyl)pyridin-3-yl]methoxy}-1-[(2S)-oxolane-2-carbonyl]pyrrolidine-2-carboxylic acid] | 1000 to 10000 | < 1000 | +++ (≥350) | ++ (≥100 and <200)
3 | COc1nc2ccccc2cc1CO[C@H]1[C@H](C(C)(C)C)[C@@H](C(=O)O)N(C(=O)[C@@H]2CCCO2)[C@H]1c1ccccc1C(C)C [Example 116, (2S,3R,4S,5S)-3-tert-butyl-4-[(2-methoxyquinolin-3-yl)methoxy]-1-[(2S)-oxolane-2-carbonyl]-5-[2-(propan-2-yl)phenyl]pyrrolidine-2-carboxylic acid] | 1000 to 10000 | 1000 to 10000 | +++ (≥350) | ++ (≥100 and <200)
4 | COc1ncc(C(F)(F)F)cc1CO[C@H]1[C@H](C(C)(C)C)[C@@H](C(=O)O)N(C(=O)[C@@H]2CCCO2)[C@H]1c1cccc(C(C)C)c1 [Example 117, (2S,3R,4S,5S)-3-tert-butyl-4-{[2-methoxy-5-(trifluoromethyl)pyridin-3-yl]methoxy}-1-[(2S)-oxolane-2-carbonyl]-5-[3-(propan-2-yl)phenyl]pyrrolidine-2-carboxylic acid] | < 1000 | < 1000 | ++ (≥150 and <350) | + (<100)
5 | COc1ncc(C(F)(F)F)cc1CO[C@H]1[C@H](C(C)(C)C)[C@@H](C(=O)O)N(C(=O)[C@@H]2CCCO2)[C@H]1c1cccc(Br)c1 [Example 118, (2S,3R,4S,5S)-5-(3-bromophenyl)-3-tert-butyl-4-{[2-methoxy-5-(trifluoromethyl)pyridin-3-yl]methoxy}-1-[(2S)-oxolane-2-carbonyl]pyrrolidine-2-carboxylic acid] | 1000 to 10000 | < 1000 | +++ (≥350) | ++ (≥100 and <200)
6 | COc1ncc(C(F)(F)F)cc1CO[C@H]1[C@H](C(C)(C)C)[C@@H](C(=O)O)N(C(=O)[C@@H]2CCCO2)[C@H]1c1cccc(Cl)c1 [Example 119, (2S,3R,4S,5S)-3-tert-butyl-5-(3-chlorophenyl)-4-{[2-methoxy-5-(trifluoromethyl)pyridin-3-yl]methoxy}-1-[(2S)-oxolane-2-carbonyl]pyrrolidine-2-carboxylic acid] | 1000 to 10000 | 1000 to 10000 | +++ (≥350) | ++ (≥100 and <200)
7 | COc1ncc(C(F)(F)F)cc1CO[C@H]1[C@H](C(C)(C)C)[C@@H](C(=O)O)N(C(=O)[C@@H]2CCCO2)[C@H]1c1cccc(C2CC2)c1 [Example 120, (2S,3R,4S,5S)-3-tert-butyl-5-(3-cyclopropylphenyl)-4-{[2-methoxy-5-(trifluoromethyl)pyridin-3-yl]methoxy}-1-[(2S)-oxolane-2-carbonyl]pyrrolidine-2-carboxylic acid] | 1000 to 10000 | < 1000 | ++ (≥150 and <350) | + (<100)
8 | COc1ncc(C(F)(F)F)cc1CO[C@H]1[C@H](C(C)(C)C)[C@@H](C(=O)O)N(C(=O)[C@@H]2CCCO2)[C@H]1c1cccc(C(C)(C)C)c1 [Example 121, (2S,3R,4S,5S)-3-tert-butyl-5-(3-tert-butylphenyl)-4-{[2-methoxy-5-(trifluoromethyl)pyridin-3-yl]methoxy}-1-[(2S)-oxolane-2-carbonyl]pyrrolidine-2-carboxylic acid] | < 1000 | < 1000 | ++ (≥150 and <350) | + (<100)
9 | COc1ncc(C(F)(F)F)cc1CO[C@@H]1[C@H](C(C)(C)C)[C@@H](C(=O)O)N(C(=O)[C@@H]2CCCO2)[C@H]1c1cccc(C(C)(C)C)c1 [Example 122, (2S,3R,4R,5S)-3-tert-butyl-5-(3-tert-butylphenyl)-4-{[2-methoxy-5-(trifluoromethyl)pyridin-3-yl]methoxy}-1-[(2S)-oxolane-2-carbonyl]pyrrolidine-2-carboxylic acid] | > 10000 | > 10000 | + (<150) | + (<100)
10 | COc1ncc(C(F)(F)F)cc1CO[C@H]1[C@H](C(C)(C)C)[C@@H](C(=O)O)N(C(=O)[C@@H]2CCCCO2)[C@H]1c1cccc(Cl)c1 [Example 123, (2S,3R,4S,5S)-3-tert-butyl-5-(3-chlorophenyl)-4-{[2-methoxy-5-(trifluoromethyl)pyridin-3-yl]methoxy}-1-[(2S)-oxane-2-carbonyl]pyrrolidine-2-carboxylic acid] | 1000 to 10000 | < 1000 | +++ (≥350) | ++ (≥100 and <200)
11 | COc1ncc(C(F)(F)F)cc1CO[C@H]1[C@H](C(C)(C)C)[C@@H](C(=O)O)N(C(=O)OC(C)C)[C@H]1c1cccc(Br)c1 [Example 124, (2S,3R,4S,5S)-5-(3-bromophenyl)-3-tert-butyl-4-{[2-methoxy-5-(trifluoromethyl)pyridin-3-yl]methoxy}-1-{[(propan-2-yl)oxy]carbonyl}pyrrolidine-2-carboxylic acid] | 1000 to 10000 | < 1000 | ++ (≥150 and <350) | + (<100)
12 | COc1ncc(C(F)(F)F)cc1CO[C@H]1[C@H](C(C)(C)C)[C@@H](C(=O)O)N(C(=O)[C@H]2CCCCO2)[C@H]1c1cccc(Cl)c1 [Example 125, (2S,3R,4S,5S)-3-tert-butyl-5-(3-chlorophenyl)-4-{[2-methoxy-5-(trifluoromethyl)pyridin-3-yl]methoxy}-1-[(2R)-oxane-2-carbonyl]pyrrolidine-2-carboxylic acid] | < 1000 | < 1000 | ++ (≥150 and <350) | + (<100)
13 | COc1ncc(C(F)(F)F)cc1CO[C@@H]1[C@H](C(C)(C)C)[C@@H](C(=O)O)N(C(=O)[C@@H]2CCCO2)[C@H]1c1ccccc1Br [Example 126, (2S,3R,4R,5S)-5-(2-bromophenyl)-3-tert-butyl-4-{[2-methoxy-5-(trifluoromethyl)pyridin-3-yl]methoxy}-1-[(2S)-oxolane-2-carbonyl]pyrrolidine-2-carboxylic acid] | > 10000 | > 10000 | + (<150) | + (<100)
14 | COc1ncc(C(F)(F)F)cc1CO[C@H]1[C@H](C(C)(C)C)[C@@H](C(=O)O)N(C(=O)[C@@H]2CCCO2)[C@H]1c1ccnn1C(C)C [Example 127, (2S,3R,4S,5S)-3-tert-butyl-4-{[2-methoxy-5-(trifluoromethyl)pyridin-3-yl]methoxy}-1-[(2S)-oxolane-2-carbonyl]-5-[1-(propan-2-yl)-1H-pyrazol-5-yl]pyrrolidine-2-carboxylic acid] | > 10000 | > 10000 | + (<150) | + (<100)
15 | COc1ncc(C(F)(F)F)cc1CO[C@H]1[C@H](C(C)(C)C)[C@@H](C(=O)O)N(C(=O)[C@@H]2CCCCO2)[C@H]1c1ccccc1C1CC1 [Example 128, (2S,3R,4S,5S)-3-tert-butyl-5-(2-cyclopropylphenyl)-4-{[2-methoxy-5-(trifluoromethyl)pyridin-3-yl]methoxy}-1-[(2S)-oxane-2-carbonyl]pyrrolidine-2-carboxylic acid] | 1000 to 10000 | < 1000 | +++ (≥350) | ++ (≥100 and <200)
16 | COc1ncc(C(F)(F)F)cc1CO[C@H]1[C@H](C(C)(C)C)[C@@H](C(=O)O)N(C(=O)[C@@H]2CCCO2)[C@H]1c1ccccc1C [Example 129, (2S,3R,4S,5S)-3-tert-butyl-4-{[2-methoxy-5-(trifluoromethyl)pyridin-3-yl]methoxy}-5-(2-methylphenyl)-1-[(2S)-oxolane-2-carbonyl]pyrrolidine-2-carboxylic acid] | 1000 to 10000 | < 1000 | +++ (≥350) | ++ (≥100 and <200)
17 | COc1ncc(C2CCC2)cc1CO[C@H]1[C@H](C(C)(C)C)[C@@H](C(=O)O)N(C(=O)[C@@H]2CCCO2)[C@H]1c1ccccc1C(C)C [Example 130, (2S,3R,4S,5S)-3-tert-butyl-4-[(5-cyclobutyl-2-methoxypyridin-3-yl)methoxy]-1-[(2S)-oxolane-2-carbonyl]-5-[2-(propan-2-yl)phenyl]pyrrolidine-2-carboxylic acid] | < 1000 | < 1000 | +++ (≥350) | ++ (≥100 and <200)
